The results in this text go back to ChEMBL document CHEMBL1136683, “Potent and selective aggrecanase inhibitors containing cyclic P1 substituents” (Bioorg Med Chem Lett, 2003).

The target in data set [1] is Matrix metalloproteinase-9 (Homo sapiens, UniProt P14780). The experiment in a line: Affinity for Matrix metalloprotease-9 (MMP-9).
The nature of data set [2]: Inhibition of bovine aggrecanase. Details: species or system Bos taurus.
Data set [3] in a line: Half life time after intravenous administration (5.0 mg/kg) was determined in rat. The note with it: in vivo. The class given is ADME, organism-based.
Data set [4] is described as follows: Systemic clearance after intravenous administration (5.0 mg/kg) was determined in rat. In kind it is ADME, organism-based. To be noted: in vivo.
The nature of data set [5]: Tmax after peroral administration (1 mg/kg) was determined in dog. The class given is ADME, organism-based, Canis lupus familiaris. To be noted: in vivo, po.
A short description of data set [6]: Bioavailability after peroral administration (10 mg/kg) was determined in rat. The class given is ADME, organism-based. To be noted: in vivo, po.
The nature of data set [7]: Systemic clearance after intravenous administration (0.5 mg/kg) was determined in dog. The note with it: in vivo. In kind it is ADME, organism-based, Canis lupus familiaris.
Data set [8] in a line: Vss after intravenous administration (0.5 mg/kg) was determined in dog. The class given is ADME, organism-based, Canis lupus familiaris. To be noted: in vivo, read-out: Vss.
A short description of data set [9]: Half life time after intravenous administration (0.5 mg/kg) was determined in dog. In kind it is ADME, organism-based, Canis lupus familiaris. The note with it: in vivo.
A short description of data set [10]: Vss after intravenous administration (5.0 mg/kg) was determined in rat. The class given is ADME, organism-based. To be noted: in vivo, read-out: Vss.
The nature of data set [11]: Bioavailability after peroral administration (1 mg/kg) was determined in dog. The class given is ADME, organism-based, Canis lupus familiaris. The note with it: in vivo, po.
The nature of data set [12]: Tmax after peroral administration (10 mg/kg) was determined in rat. In kind it is ADME, organism-based. To be noted: in vivo, po.

Matrix metalloproteinase-9, sequence (P14780 whole entry): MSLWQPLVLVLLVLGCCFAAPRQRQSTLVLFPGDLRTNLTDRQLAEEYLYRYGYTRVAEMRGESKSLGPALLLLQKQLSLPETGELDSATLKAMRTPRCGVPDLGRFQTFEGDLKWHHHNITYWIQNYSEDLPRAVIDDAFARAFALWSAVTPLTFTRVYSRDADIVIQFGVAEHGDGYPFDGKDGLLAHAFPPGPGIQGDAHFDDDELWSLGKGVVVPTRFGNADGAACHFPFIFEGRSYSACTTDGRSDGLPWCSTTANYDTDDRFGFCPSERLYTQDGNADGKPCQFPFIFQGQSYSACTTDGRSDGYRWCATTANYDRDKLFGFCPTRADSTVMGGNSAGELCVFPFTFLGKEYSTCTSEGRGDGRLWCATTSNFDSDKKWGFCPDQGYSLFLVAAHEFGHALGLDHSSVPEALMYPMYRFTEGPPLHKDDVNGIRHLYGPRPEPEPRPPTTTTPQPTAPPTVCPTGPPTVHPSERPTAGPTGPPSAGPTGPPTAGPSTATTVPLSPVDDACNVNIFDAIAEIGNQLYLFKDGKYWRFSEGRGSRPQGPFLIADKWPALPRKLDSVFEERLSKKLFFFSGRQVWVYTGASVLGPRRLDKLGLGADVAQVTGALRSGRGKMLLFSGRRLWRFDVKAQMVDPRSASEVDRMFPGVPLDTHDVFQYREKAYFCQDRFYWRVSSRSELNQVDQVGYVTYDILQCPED

`CCN1CCC(C(C(=O)NO)C(Cc2cccc(O)c2)C(=O)N[C@H]2c3ccccc3C[C@H]2O)CC1` (single isomer, unassigned): the Ki (usually the dissociation constant of the complex between target and ligand, obtained from inhibition or displacement) in data set [1] is over 2130 nM. 45 nM corresponded to half-maximal inhibition in [2] (IC50).
In the case of `O=C(NO)[C@@H](NCC1CC1)[C@@H](Cc1cccc(O)c1)C(=O)N[C@H]1c2ccccc2C[C@H]1O`, in data set [2], the IC50 – broadly, the concentration that gives 50% inhibition – stood at 12 nM.
In [1], `CN1CCC([C@H](C(=O)NO)[C@@H](Cc2cccc(O)c2)C(=O)N[C@H]2c3ccccc3C[C@H]2O)CC1` displayed an inhibition constant (Ki) of over 2130 nM. For the same compound, the IC50 in data set [2] came to 210 nM.
Taken in the same sequence, the figures for `CS(=O)(=O)N1CCC([C@H](C(=O)NO)[C@@H](Cc2cccc(O)c2)C(=O)N[C@H]2c3ccccc3C[C@H]2O)CC1` were 2100 nM and 3 nM.
Taken in the same sequence, the figures for `O=C(N[C@H]1c2ccccc2C[C@H]1O)[C@H](Cc1cccc(O)c1)[C@@H](C(=O)NO)C1CN(C(=O)C(F)(F)F)C1` were 1490 nM and 3 nM.
`CC(=O)N1CCC(CC(C(=O)NO)C(Cc2cccc(O)c2)C(=O)N[C@H]2c3ccccc3C[C@H]2O)CC1` (single isomer, unassigned) gave a Ki in data set [1] of over 2130 nM. In data set [2], this compound gave an IC50 of 114 nM.
For `O=C(N[C@H]1c2ccccc2C[C@H]1O)[C@H](Cc1cccc(O)c1)[C@@H](C(=O)NO)C1CNC1`, in data set [1], the inhibition constant (Ki) is over 2130 nM. For the same compound, the IC50 in [2] was found to be 7 nM.
`CCC(=O)N1CCC(C[C@H](C(=O)NO)[C@@H](Cc2cccc(O)c2)C(=O)N[C@H]2c3ccccc3C[C@H]2O)CC1`: the Ki in data set [1] was over 2130 nM. In addition, the half-maximal inhibitory concentration (IC50) in data set [2] is 97 nM.
In [1], `CCOC(=O)N1CCC([C@H](C(=O)NO)[C@@H](Cc2cccc(O)c2)C(=O)N[C@H]2c3ccccc3C[C@H]2O)CC1` showed a Ki of 832 nM. In data set [2], it took 7 nM to reach half-maximal inhibition (IC50).
Taken in the same sequence, the figures for `CC(C)(C)OC(=O)N1CCC([C@H](C(=O)NO)[C@@H](Cc2cccc(O)c2)C(=O)N[C@H]2c3ccccc3C[C@H]2O)CC1` were 1300 nM and 19 nM.
Taken in the same sequence, the figures for `CC(C)(C)OC(=O)N1CCC([C@H](C(=O)O)C(Cc2cccc(O)c2)C(=O)N[C@H]2c3ccccc3C[C@H]2O)CC1` (stereo not given in full) were over 2130 nM and over 1000 nM.
On to `O=C(N[C@H]1c2ccccc2C[C@H]1O)[C@H](Cc1cccc(O)c1)[C@@H](C(=O)NO)C1CCNCC1`, for which the half-life (commonly the time needed for the level to fall by half in the phase considered) in data set [3] is 4 h; in [9], 3.8 h. Moreover, the clearance (commonly a measure of how efficiently the substance is removed, as volume per time) was 8.33 mL/min/kg in data set [4] and 1.67 mL/min/kg in data set [7]. In addition, the figures for the Tmax in data set [5] and in [12] were 4.3 h and 1.5 h, respectively. The results for the bioavailability in data set [6] and in data set [11] were 1% and 20%, respectively. The inhibitory constant (Ki) in [1] was 4000 nM. The Vd worked out at 0.2 L/kg in data set [8] and 0.3 L/kg in data set [10]. Besides, in data set [2], the IC50 was found to be 28 nM.
The compound `CC(=O)N1CCC(C(C(=O)NO)C(Cc2cccc(O)c2)C(=O)N[C@H]2c3ccccc3C[C@H]2O)CC1` (single isomer, unassigned) registered an inhibition constant Ki in data set [1] of 1740 nM. In data set [2], half-maximal inhibition (IC50) required 29 nM.
